Results: patent US20170240556A1, “BIFLUORODIOXALANE-AMINO-BENZIMIDAZOLE KINASE INHIBITORS FOR THE TREATMENT OF CANCER, AUTOIMMUNEINFLAMMATION AND CNS DISORDERS” (4SC DISCOVERY GMBH, priority 2012, published 2017)
pIC50: −log10 of the molar value.

Key:
[1] = biological target: Casein kinase 1 delta (CSKN1D) (Homo sapiens, UniProt P48730); assay: Casein kinase assay, CK1 delta; assay type: biochemical; conditions: recombinant CSKN1D 5 nM, ATP 10 μM
[2] = biological target: Casein kinase 1 epsilon (CSKN1E) (Homo sapiens, UniProt P49674); assay: Casein kinase assay, CK1 epsilon; assay type: biochemical; conditions: recombinant CSKN1E 30 nM, ATP 10 μM
[3] = tested on: Wnt/β-catenin signaling pathway; assay: Wnt reporter assay (CellSensor LEF/TCF-bla FreeStyle 293F cells); assay type: cell-based; conditions: Homo sapiens; LEF/TCF-bla 293F cells, LiCl and mWnt3a stimulation
Experimental: The Wnt reporter assay was performed in stably transfected human HEK293 cells. Wnt signaling was induced by administration of Wnt3a protein and read out by β-Lactamase mediated cleavage of CCF4-AM and subsequent fluorescent detection.
CellSensor LEF/TCF-bla FreeStyle 293F cells (invitrogen #K1677) contain a beta-lactamase reporter gene under control of the β-catenin/LEF/TCF binding elements stably integrated into FreeStyle 293F cells. This cell line can be used to detect antagonists of the Wnt/β-catenin signaling pathway when stimulated by mouse Wnt3a or LiCl. The detection of beta-lactamase is possible with LiveBLAzer FRET—B/G Loading Kit (invitrogen #K1095) with CCF4-AM as subtrate.
Culture Medium: DMEM Medium +10% dialyzed FBS (PAN 2102-P290310), +1% NEAA (PAA M11-003), +1% P/S (Penicillin/Streptomycin, PAA P11-010) +25 mM HEPES (PAA S11-001), +5 μg/ml Blasticidin (PAA P05-017).
Cells (CellSensor LEF/TCF-bla FreeStyle 293F, invitrogen K1677) were split with Culture Medium to reach a confluence at the beginning of the assay of 80-90%.
At start of the assay, cells were harvested from culture and resuspend in assay medium at density of 0,66*10̂6 cells/ml. Subsequently, 60μ1 cell suspension were pipetted in each well of a Poly-D-Lysine 96 well Plate (BD #354640, vertical rows are marked 1 through 12, horizontal lanes are marked A through H),
Plates were subsequently incubated at 37° C. for at least 2 h.
To stimulate with Wnt3a, overnight prestimulation of Wnt signalling pathway with LiCl is necessary. Subsequently, an 8M aqueous LiCl solution was diluted 1:200 in assay medium, and 30 μl of said diluted LiCl solution was plated into the appropriate wells (see below pipetting scheme). Plates were then incubated at 37° C. over night.
Subsequently, compounds and controls were prepared as follows: mWnt3a (R&D 1324-WN, dissolved in PBS+0.1% BSA to 40 μg/ml) was diluted 1:100 in assay medium (=400 ng/ml). Compounds (Cpd) were diluted to a concentration of 10 mM in DMSO to prepare dilution series in assay medium (final concentrations 30 μM, 10 μM, 3 μM, 1 μM, 0.3 μM, 0.1 μM, 0.03 μM and 0.01 μM), which were pipetted into the appropriate wells (see below pipetting scheme). For each dilution of each compound, 3 replicates were tested. Final DMSO concentration was 0.3%.
LiCl and mWnt3a stimulated cells were used as High control (HC), unstimulated cells were used as low control, a blank was prepared from cell free medium plus mWnt3a, and a functional control was prepared with a known Wnt inhibitor (e.g. PKF118-310), final concentrations were as above.
Subsequently, the well was incubated for 5 h at 37° C.
At t=23 hours, FRET reagent mix (Loading Kit with CCF4-AM, Life Technologies #K1096) was prepared; per plate: 138 μl Solution B, 13.8 μl FRET-reagent, and 2300 μl Solution C. 24 μl FRET reagent mix were plated to each well, subsequently plates were incubated for at least 2 h in the dark (it is possible to incubate over night). Subsequently, plates were measured in the BMG FluorStar® plate reader at an emission waveltengths of 460 and 520 nm and with an excitation wavelength of 405 nm.
To determine potential cytotoxicity of the compounds, plates were centrifuge and the supernatant was discarded by dumping the plates. Subsequently, 100 μl Opti-MEM and 50 μl ViaLight (Lonza #LT07-321) Lysis Buffer were added to each well, followed by incubation for 10 min at room temperature (25° C.). Subsequently, 100 μl ViaLight reagent were added to each well, followed by incubation for 2 min at room temperature (25° C.) in the dark. Optionally, 200 μl of the obtained suspension were transferred to a white 96 well plate. The luminescence was measured with a Tecan Ultra plate reader.

[4] = tested on: Hedgehog signaling pathway; assay: Hedgehog reporter assay (Gli Reporter - NIH3T3 Cell Line); assay type: cell-based; conditions: Mus musculus; Gli reporter NIH3T3 cells, murine SHH stimulation, 24 h; read-out: HH Assay
Experimental: In order to investigate the potency of test compounds to inhibit the Hedgehog signaling pathway, a Gli-Reporter assay was performed.
The “Gli Reporter—NIH3T3 Cell Line” contains the firefly luciferase gene under the control of Gli responsive elements stably integrated into murine NIH3T3 cells (cells purchased from Amsbio). The luciferase expression correlates with activation of the hedgehog signaling pathway. This cell line is validated for its response to stimulation with murine Sonic Hedgehog and to treatment with inhibitors of the hedgehog signaling pathway. A multiplexed viability assay was used to discriminate inhibition on the pathway activity from cell toxicity.
Growth Medium: DMEM, 10% Calf Serum, 1% Penicillin/Streptomycin 500 μg/ml Geneticin (G418 Stock 50 mg/ml).
25.000 cells per well were seeded into a white 96 well plate in 100 μl growth medium and incubated over night at 37° C. and 5% CO2. After removing the supernatant the test compounds and controls (known GLI inhibitor, e.g. GANT-61) were added in different concentrations in a final volume of 45 μl and incubated for 1 h at 37° C. and 5% CO2. For the stimulation of the Hedgehog pathway 5 μl of 10 μg/ml concentrated murine sonic hedgehog (SHH) was added to the cells. A final concentration of 1 μg/ml mSHH and 0.1% DMSO was reached per well. After incubation for 24 h at 37° C. the cells were investigated for viability and reporter activity.
Viability: For the determination of the viability of the treated cells the CellTiter-Fluor Kit from Promega was used. Essentially, only proteases of viable cells are able to cleave the cell-permeant substrate Gly-Phe-AFCoumarin (GF-AFC). By this cleavage the fluorescent AFC is set free and can be detected in a fluorescence reader. For this assay 10 μl of GF-AFC substrate (CellTiter-Fluor, Promega #G6082) was diluted in 2 ml assay buffer from the CellTiter-Fluor Kit and 10 μl of this dilution was added per well to the cells and incubated for 30 min at 37° C. The fluorescence was measured with excitation at 380-400 nm and emission at 505 nm.
Reporter activity: The firefly luciferase reporter activity was detected with the ONE-Glo™ Luciferase Assay System from Promega. For this assay 50 μl ONE-Glo luciferase reagent (Promega #E6120, contains cell lysis buffer and luciferin) was added to each well and incubated at room temperature for 5 min. Luminescence was detected in a plate reader and served as a degree for reporter activity.

Chain of Casein kinase 1 epsilon (CSKN1E) (P49674 whole entry): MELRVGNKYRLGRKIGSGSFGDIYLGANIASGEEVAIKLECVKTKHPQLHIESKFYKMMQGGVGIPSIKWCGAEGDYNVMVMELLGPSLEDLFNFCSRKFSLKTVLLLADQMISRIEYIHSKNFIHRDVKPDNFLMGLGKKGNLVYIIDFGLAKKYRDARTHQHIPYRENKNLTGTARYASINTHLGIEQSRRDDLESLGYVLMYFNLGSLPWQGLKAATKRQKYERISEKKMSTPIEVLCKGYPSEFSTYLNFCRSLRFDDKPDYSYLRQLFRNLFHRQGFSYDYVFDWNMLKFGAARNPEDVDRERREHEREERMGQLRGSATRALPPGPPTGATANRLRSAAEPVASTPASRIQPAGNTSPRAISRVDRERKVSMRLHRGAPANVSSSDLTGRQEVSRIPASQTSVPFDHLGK
Chain of Casein kinase 1 delta (CSKN1D) (P48730 whole entry): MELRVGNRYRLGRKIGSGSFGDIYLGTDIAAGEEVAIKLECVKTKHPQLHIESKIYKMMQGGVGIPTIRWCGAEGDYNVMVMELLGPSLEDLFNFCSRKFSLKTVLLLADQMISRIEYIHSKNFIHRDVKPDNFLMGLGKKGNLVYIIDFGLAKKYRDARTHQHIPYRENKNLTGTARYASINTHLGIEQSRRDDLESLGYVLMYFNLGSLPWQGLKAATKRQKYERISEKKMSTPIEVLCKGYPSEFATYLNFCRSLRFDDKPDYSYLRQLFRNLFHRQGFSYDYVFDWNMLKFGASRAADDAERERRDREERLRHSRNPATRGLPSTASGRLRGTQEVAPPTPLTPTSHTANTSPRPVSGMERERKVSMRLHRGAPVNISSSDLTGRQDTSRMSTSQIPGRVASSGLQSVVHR

Row | SMILES | pIC50 [1] | pIC50 [2] | pIC50 [3] | pIC50 [4]
1 | O=C(Nc1nc2cc3c(cc2[nH]1)OC(F)(F)O3)c1cccc(-c2nccs2)c1 [Compound 2B, N-(2,2-difluoro-5H-[1,3]dioxolo[4′,5′:4,5]benzo[1,2-d]imidazol-6-yl)-3-(thiazol-2-yl)benzamide] | > 6.70 | – | > 5.30 | –
2 | O=C(Nc1nc2cc3c(cc2[nH]1)OC(F)(F)O3)c1cccc(-c2ncc[nH]2)c1 [Compound 140, N-(2,2-difluoro-5H-[1,3]dioxolo[4′,5′:4,5]benzo[1,2-d]imidazol-6-yl)-3-(1H-imidazol-2-yl)benzamide] | > 6.70 | > 6.70 | > 5.30 | 6.00 to 6.30
3 | O=C(Nc1nc2cc3c(cc2[nH]1)OC(F)(F)O3)c1cccc(-n2cnnn2)c1 [Compound 149, N-(2,2-difluoro-5H-[1,3]dioxolo[4′,5′:4,5]benzo[1,2-d]imidazol-6-yl)-3-(1H-tetrazol-1-yl)benzamide] | > 6.70 | > 6.70 | 4.70 to 5.30 | 4.82 to 6.00

More lines, now with the values ahead:

Row | pIC50 [1] | pIC50 [2] | pIC50 [3] | pIC50 [4] | SMILES
4 | > 6.70 | > 6.70 | > 5.30 | – | COc1cc(OC)cc(C(=O)Nc2nc3cc4c(cc3[nH]2)OC(F)(F)O4)c1 [Compound 1B, N-(2,2-difluoro-5H-[1,3]dioxolo[4′,5′:4,5]benzo[1,2-d]imidazol-6-yl)-3,5-dimethoxybenzamide]
5 | > 6.70 | – | > 5.30 | ≥ 6.30 | COc1cc(C(=O)Nc2nc3cc4c(cc3[nH]2)OC(F)(F)O4)ccc1N [Compound 9B, 4-amino-N-(2,2-difluoro-5H-[1,3]dioxolo[4′,5′:4,5]benzo[1,2-d]imidazol-6-yl)-3-methoxybenzamide]
6 | > 6.70 | > 6.70 | > 5.30 | 6.00 to 6.30 | Cc1nc(-c2cccc(C(=O)Nc3nc4cc5c(cc4[nH]3)OC(F)(F)O5)c2)no1 [Compound 137, N-(2,2-difluoro-5H-[1,3]dioxolo[4′,5′:4,5]benzo[1,2-d]imidazol-6-yl)-3-(5-methyl-1,2,4-oxadiazol-3-yl)benzamide]
7 | > 6.70 | > 6.70 | > 5.30 | – | Cc1nnnn1-c1cccc(C(=O)Nc2nc3cc4c(cc3[nH]2)OC(F)(F)O4)c1 [Compound 148, N-(2,2-difluoro-5H-[1,3]dioxolo[4′,5′:4,5]benzo[1,2-d]imidazol-6-yl)-3-(5-methyl-1H-tetrazol-1-yl)benzamide]
